Results: PMC12866179, “Oxidized MIF is an Alzheimer’s disease drug target relaying external risk factors to tau pathology” (Cell Reports Medicine, 2025)
Where two headings read alike, the source gives them in different places.

How the values were obtained:
[1] = target: T1, MIF (Homo sapiens, UniProt P14174); assay: Drug resin affinity chromatography (DRAC), MIF; assay type: binding; details: SH-SY5Y-tau-P301S lysates
T1 construct: endogenous in cells; host or cells: SH-SY5Y-tau-P301S cell lysate
T1 sequence (P14174 2-115): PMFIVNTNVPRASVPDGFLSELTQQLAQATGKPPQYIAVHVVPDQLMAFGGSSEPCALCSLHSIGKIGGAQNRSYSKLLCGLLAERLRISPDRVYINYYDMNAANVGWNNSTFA
Protocol: (§1) For drug resin affinity chromatography (DRAC), supernatant of cell lysates or brain extracts were supplemented with 1 mM of ribonucleoside triphosphates (ATP, GTP, CTP, UTP; NEB), 10 mM creatine phosphate (Sigma) and 10 μL/mL of a 5 mg/mL stock solution of creatine kinase (Sigma). The samples were then loaded onto 20 μL of compound-coupled resin that were equilibrated with PBB-buffer (plus supplements). After one hour of incubation at 26°C, the beads were washed with PBB (100x bed volume). Bound proteins were then eluted either with 200 μM PAV-645 (pig brain) or 100 μM free compound (human brain samples; cell lysates) in the same buffer used as competitor solution or for stripping 1% SDS or 8M urea (cell lysates) for 1h. All elutions were kept frozen until further analysis.

[2] = tested on: pox viruses; details: cited from earlier work
[3] = target: T2, CUTA (Homo sapiens, UniProt O60888); assay: Drug resin affinity chromatography (DRAC), CUTA; assay type: binding; details: SH-SY5Y-tau-P301S lysates
T2 construct: endogenous in cells; host or cells: SH-SY5Y-tau-P301S cell lysate
T2 sequence (O60888 33-179): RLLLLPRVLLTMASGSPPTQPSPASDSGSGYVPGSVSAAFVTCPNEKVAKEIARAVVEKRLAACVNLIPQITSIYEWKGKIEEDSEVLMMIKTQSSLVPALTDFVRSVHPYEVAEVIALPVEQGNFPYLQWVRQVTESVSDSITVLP
Protocol: as §1

[4] = in vitro; assay type: in vitro ADME
[5] = MTT assay, Vero cells; assay type: cell-based; details: for CC50 at 24 h: African green monkey
Protocol: For viability analysis 4x10^4 Vero or 8x10^4 SH-SY5Y-tau-P301S cells were plated in a 96-well plate and incubated at 37°C overnight. Then the compounds diluted in DMSO were added to the cells. The final concentration of DMSO was 1%. The cells were then incubated for 24h (Vero) or 48h (SH-SY5Y). Afterward 20 μL of a Thiazolyl Blue Tetrazolium Bromide (MTT, Sigma) solution (5 mg/mL in PBS) was added to the cells and incubated for 4h allowing viable cells to reduce the yellow MTT into blue formazan metabolites. Following aspiration of the medium, the formazan was resuspended in 200 μL isopropanol/40 mM HCl and incubated for 30 min at RT. The diluted formazan was spectrometrically analyzed using a Tecan Safire Spectrometer at 560 nm and background at 670 nm was subtracted.

[6] = tested on: tau phosphorylation; assay: Tau assay (immunoblot of phospho-tau) in SH-SY5Y-tau-P301S cells; assay type: cell-based, human; details: for tau phosphorylation at Ser202 and Thr205 (AT8): absence of virus, ISO-1 up to 100 μM; for effect on tau phosphorylation (AT8) in MIF-knockdown cells: SH-SY5Y-tau-P301S-MIF-knockdown cells; for potency relative to PAV-802 in inhibiting tau phosphorylation: in vitro assay
Protocol: For the analysis of compound effects on tau phosphorylation 4x10^5 SH-SY5Y tau-P301S cells were seeded on 24-well plates. At the next day the cells were treated with compounds diluted in DMSO. Final concentration of DMSO was 0.2%. After an incubation at 37°C for 48h the cells were washed twice with PBS and then lysed in PBS/1% NP40 (Applichem) including the cOmplete protease inhibitor cocktail 2 (Roche) and phosphatase inhibitor cocktail (Sigma). The protein concentration of the samples was determined with the DC Protein Assay (Bio-Rad).
After the protein concentration of cell lysates and homogenates had been determined using the DC Protein Assay Kit (Bio-Rad), 20 μg of each sample were dissolved in NuPAGE LDS Sample buffer (including 2% β-mercaptoethanol), boiled at 100°C for 5 min and then separated on NuPAGE Novex 4–12% Bis-Tris midi gels (Invitrogen) using NuPAGE MES SDS Running buffer (Invitrogen). Proteins were then transferred to a 0.2 μm nitrocellulose membrane (Amersham) in 24 mM Tris/192 mM glycine/20% MeOH at 400 mA for 2h using a tank blot system (Bio-Rad). In order to detect any blotting artifacts, the proteins on the membranes were visualized with Ponceau S (Sigma). The membranes were destained with PBS and then blocked with PBS/5% nonfat milk (Oxoid) for 1h at RT. Incubations with primary antibodies (diluted 1:1,000) in PBS-T were carried out overnight at 4°C. Then the membranes were washed three times with PBS-T for 10 min and afterward incubated with fluorescent secondary antibodies (IR Dye 680 or 800: Li-COR Biosciences.) diluted 1:20,000 in PBS-T for 1h at RT. Following three washing steps with PBS-T for 10 min each, the membranes were scanned using an LI-COR Odyssey CLX. Signal intensities were calculated using the Image Studio Version 2.1 software (LI-COR Biosciences). Blots were reused for staining with additional primary antibodies following the same procedure.

[7] = tested on: HSV-1; assay: In-cell ELISA for antiviral (HSV-1) activity in Vero cells; assay type: cell-based, HSV-1 KOS strain; details: for IC50: Human alphaherpesvirus 1, Vero; for potency relative to PAV-802 in inhibiting HSV-1 replication: in vitro assay
Protocol: Antiviral activity of the compounds was measured by in-cell ELISA that was adapted from Fabiani et al.[90] […] In parallel cells were infected with serial dilutions of HSV-1 to generate a standard curve. […] Following blocking with 5% BSA in PBS/0.05% Tween 20 (Sigma, PBS-T) for 60 min the cells were incubated with 50 μL of anti-HSV-1-gC antibody (abcam) diluted 1 to 10,000 in PBS-T over night at 4°C. The following day, cells were washed four times with PBS-T and then incubated with Hrp-conjugated goat anti-mouse antibody (Thermo Fisher Scientific) at a dilution of 1:10,000 in PBS-T for 60 min. Then, cells were washed four times with PBS-T before adding 50 μL of the substrate cocktail (OptEIA, BD). The reaction was stopped after 30 min by adding 50 μL of 2N H2SO4 and signals were spectrometrically analyzed using a Tecan Safire at 450 nm.

Structure (SMILES) | elution of MIF from PAV-617 resins by free compound [1] | antiviral effects on pox viruses [2] | elution of CUTA from PAV-617 resins by free compound [3] | fraction unbound [4] | CC50 at 24 h ([5]; CC50 (µM)) | CC50 at 24 h ([5]; CC50, MTT assay in Vero) | CC50 ([5]; CC50 (µM)) | tau phosphorylation at Thr181 (AT270) ([6]; SH-SY5Y-tau-P301S cells) | tau phosphorylation at Thr231 (AT180) ([6]; SH-SY5Y-tau-P301S cells) | HSV-1-induced increase of tau phosphorylation (AT8) ([6]; SH-SY5Y-tau-P301S cells infected with HSV-1) | tau phosphorylation at Ser202 and Thr205 (AT8) ([6]; SH-SY5Y-tau-P301S cells) | effect on tau phosphorylation (AT8) in MIF-knockdown cells [6] | potency relative to PAV-802 in inhibiting tau phosphorylation [6] | IC50 [7] | IC50 ([7]; read-out: IC50, HSV-1 replication, in-cell ELISA) | potency relative to PAV-802 in inhibiting HSV-1 replication [7]
CCc1cc(N2CCCC2)cc2[s+]c3cc(N4CCCC4)cc(C)c3nc12.[I-] [PAV-174, 3,7-Di(pyrrolidine-1-yl) 1-ethyl-9-methyl-phenothiazin-5-ium iodide] | eluted | antiviral effects | eluted | 0.001 | 1.2 µM | 1.12 µM | 1.16 µM | only at higher concentrations | dose-dependent reduction | absent | reduced tau phosphorylation | absent | around 2 logs | 20 nM | 21 nM | around 2 logs
[I-].c1cc2nc3ccc(N4CCCC4)cc3[s+]c2cc1N1CCCC1 [PAV-617, 3,7-Di(pyrrolidine-1-yl)phenothiazine-5-ium iodide] | eluted | antiviral effects | eluted | 0.088 | – | – | 20.1 µM | – | – | – | reduced tau phosphorylati on ly in control | bu t no t in MIF-knockdown | retained that enhanced activity | 220 nM | – | retained that enhanced activity
